Test results reported in ChEMBL document CHEMBL3045488, “3D-QSAR STUDIES ON SUBSTITUTED DIHYDROPYRIDINES FOR THEIR 1A-ADRENERGIC RECEPTOR BINDING AFFINITY” (Med Chem Res, 2004).
pKi: −log10 of the molar value.

Target: T1, Alpha-1A adrenergic receptor (Homo sapiens, UniProt P35348)
T1 sequence (P35348 whole entry): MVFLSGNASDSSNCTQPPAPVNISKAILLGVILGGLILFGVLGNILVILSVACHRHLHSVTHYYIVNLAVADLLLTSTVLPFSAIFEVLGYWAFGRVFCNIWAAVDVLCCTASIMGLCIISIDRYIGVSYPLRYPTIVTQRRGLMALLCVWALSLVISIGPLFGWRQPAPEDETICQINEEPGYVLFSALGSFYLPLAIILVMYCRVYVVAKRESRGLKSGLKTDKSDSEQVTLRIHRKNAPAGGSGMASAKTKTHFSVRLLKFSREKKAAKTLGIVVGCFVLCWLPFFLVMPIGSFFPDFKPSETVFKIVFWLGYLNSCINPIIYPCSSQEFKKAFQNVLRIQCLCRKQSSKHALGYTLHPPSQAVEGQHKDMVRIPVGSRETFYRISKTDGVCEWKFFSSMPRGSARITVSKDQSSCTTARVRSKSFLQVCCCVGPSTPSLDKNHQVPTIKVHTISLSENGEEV
Assay: Binding affinity to Homo sapiens (human) alpha1A adrenergic receptor

Structure (SMILES)	pKi
COC(=O)C1=C(C)NC(C)=C(C(=O)NCCCN2CCC(C(=O)OC)(c3ccccc3)CC2)C1c1ccc([N+](=O)[O-])cc1 (stereo unspecified)	8.45
COC(=O)C1(c2ccccc2)CCN(CCCNC(=O)C2=C(C)NC(C)=C(C(=O)OCCO)C2c2ccc([N+](=O)[O-])cc2)CC1 (stereo unspecified)	8.44
COC(=O)C1=C(C)NC(C)=C(C(=O)NCCCCN2CCC(c3ccccc3)(c3ccccc3)CC2)C1c1ccc([N+](=O)[O-])cc1 (racemic)	7.83
COC(=O)C1=C(C)NC(C)=C(C(=O)NCCCN2CCC(c3ccccc3)CC2)C1c1ccc([N+](=O)[O-])cc1 (racemic)	9.64
COC(=O)C1=C(C)NC(C)=C(C(=O)NCCCN2CCC(c3ccccc3)(c3ccccc3)CC2)C1c1ccc(C)cc1 (racemic)	8.86
COC(=O)C1=C(C)NC(C)=C(C(=O)NCCCN2CCC(c3ccccc3)CC2)C1c1ccc(Cl)c([N+](=O)[O-])c1 (racemic)	9.28
